Test in all cases: Eurofins kinase selectivity profile against 380 other human recombinant kinases (Table S2)
Format in all cases: biochemical

In assay [1] the target is T1, 380 human recombinant protein kinases (Homo sapiens, UniProt Q8NE63).
T1 construct: purchased Eurofins (Celle Lévescault)
T1 sequence (Q8NE63 1-616): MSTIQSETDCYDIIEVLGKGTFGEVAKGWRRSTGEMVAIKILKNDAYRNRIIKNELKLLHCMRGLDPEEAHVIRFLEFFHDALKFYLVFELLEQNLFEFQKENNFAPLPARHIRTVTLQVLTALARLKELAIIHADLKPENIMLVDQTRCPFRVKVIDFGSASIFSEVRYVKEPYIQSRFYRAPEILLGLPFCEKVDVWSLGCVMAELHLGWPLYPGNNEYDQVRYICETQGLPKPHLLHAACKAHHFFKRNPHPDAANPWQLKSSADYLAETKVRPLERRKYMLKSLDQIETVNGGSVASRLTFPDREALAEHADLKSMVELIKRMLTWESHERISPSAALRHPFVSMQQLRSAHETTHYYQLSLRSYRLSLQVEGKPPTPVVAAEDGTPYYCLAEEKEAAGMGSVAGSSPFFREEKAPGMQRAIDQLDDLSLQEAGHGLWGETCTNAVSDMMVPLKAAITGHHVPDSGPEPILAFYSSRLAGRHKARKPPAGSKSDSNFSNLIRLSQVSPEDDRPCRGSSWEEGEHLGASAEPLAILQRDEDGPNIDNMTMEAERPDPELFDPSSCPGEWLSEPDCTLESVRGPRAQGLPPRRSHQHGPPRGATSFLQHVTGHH
As to conditions: HIPK4(h), read-out: Inhibition rate. A digest of the protocol: (§1)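 Off-target profiling: one compound assayed by a commercial provider over 380 recombinant human protein kinases at various concentrations.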

For assay [2], the target named is T2, 380 human recombinant protein kinases (Homo sapiens, UniProt Q92918).
T2 construct: purchased Eurofins (Celle Lévescault)
Particulars: HPK1(h), read-out: Inhibition rate. A digest of the protocol: as §1

Assay [3] addresses T3, 380 human recombinant protein kinases (Homo sapiens, UniProt Q15746).
T3 construct: purchased Eurofins (Celle Lévescault)
As to conditions: MLCK(h), read-out: Inhibition rate. Put shortly:
as §1

The target of assay [4] is T4, 380 human recombinant protein kinases (Homo sapiens, UniProt Q16566).
T4 construct: purchased Eurofins (Celle Lévescault)
T4 sequence (Q16566 1-473): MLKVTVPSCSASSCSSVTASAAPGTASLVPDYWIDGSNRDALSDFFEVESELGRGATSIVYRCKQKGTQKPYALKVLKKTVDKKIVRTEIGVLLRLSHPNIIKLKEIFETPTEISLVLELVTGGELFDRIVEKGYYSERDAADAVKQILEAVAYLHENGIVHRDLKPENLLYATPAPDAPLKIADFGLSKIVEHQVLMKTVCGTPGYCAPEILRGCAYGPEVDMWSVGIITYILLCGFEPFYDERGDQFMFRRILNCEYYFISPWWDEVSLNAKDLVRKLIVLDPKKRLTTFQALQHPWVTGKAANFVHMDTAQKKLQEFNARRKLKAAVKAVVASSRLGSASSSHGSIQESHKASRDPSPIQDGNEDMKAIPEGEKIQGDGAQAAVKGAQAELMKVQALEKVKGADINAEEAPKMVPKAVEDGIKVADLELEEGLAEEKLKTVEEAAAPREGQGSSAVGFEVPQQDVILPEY
Particulars: CaMKIV(h), read-out: Inhibition rate. Put shortly: as §1

The target of assay [5] is T5, 380 human recombinant protein kinases (Homo sapiens, UniProt Q15375).
T5 construct: purchased Eurofins (Celle Lévescault)
As to conditions: EphA7(h), read-out: Inhibition rate. A digest of the protocol: as §1

Assay [6] addresses T6, 380 human recombinant protein kinases (Homo sapiens, UniProt Q9UQB9).
T6 construct: purchased Eurofins (Celle Lévescault)
T6 sequence (Q9UQB9 1-309): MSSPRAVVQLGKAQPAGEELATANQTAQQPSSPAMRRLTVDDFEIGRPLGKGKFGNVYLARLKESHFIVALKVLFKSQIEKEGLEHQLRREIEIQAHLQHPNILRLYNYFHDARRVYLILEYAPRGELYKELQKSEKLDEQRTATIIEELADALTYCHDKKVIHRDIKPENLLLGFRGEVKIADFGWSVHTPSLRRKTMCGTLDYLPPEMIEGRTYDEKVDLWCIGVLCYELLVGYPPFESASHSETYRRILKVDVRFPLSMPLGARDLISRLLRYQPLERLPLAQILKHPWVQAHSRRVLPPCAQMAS
As to conditions: Aurora-C(h), read-out: Inhibition rate. A digest of the protocol:
as §1

Assay [7] has as its target T7, 380 human recombinant protein kinases (Homo sapiens, UniProt Q52WX2).
T7 construct: purchased Eurofins (Celle Lévescault)
As to conditions: SBK1(h), read-out: Inhibition rate (%). Put shortly: as §1

T2 sequence (Q92918 whole entry): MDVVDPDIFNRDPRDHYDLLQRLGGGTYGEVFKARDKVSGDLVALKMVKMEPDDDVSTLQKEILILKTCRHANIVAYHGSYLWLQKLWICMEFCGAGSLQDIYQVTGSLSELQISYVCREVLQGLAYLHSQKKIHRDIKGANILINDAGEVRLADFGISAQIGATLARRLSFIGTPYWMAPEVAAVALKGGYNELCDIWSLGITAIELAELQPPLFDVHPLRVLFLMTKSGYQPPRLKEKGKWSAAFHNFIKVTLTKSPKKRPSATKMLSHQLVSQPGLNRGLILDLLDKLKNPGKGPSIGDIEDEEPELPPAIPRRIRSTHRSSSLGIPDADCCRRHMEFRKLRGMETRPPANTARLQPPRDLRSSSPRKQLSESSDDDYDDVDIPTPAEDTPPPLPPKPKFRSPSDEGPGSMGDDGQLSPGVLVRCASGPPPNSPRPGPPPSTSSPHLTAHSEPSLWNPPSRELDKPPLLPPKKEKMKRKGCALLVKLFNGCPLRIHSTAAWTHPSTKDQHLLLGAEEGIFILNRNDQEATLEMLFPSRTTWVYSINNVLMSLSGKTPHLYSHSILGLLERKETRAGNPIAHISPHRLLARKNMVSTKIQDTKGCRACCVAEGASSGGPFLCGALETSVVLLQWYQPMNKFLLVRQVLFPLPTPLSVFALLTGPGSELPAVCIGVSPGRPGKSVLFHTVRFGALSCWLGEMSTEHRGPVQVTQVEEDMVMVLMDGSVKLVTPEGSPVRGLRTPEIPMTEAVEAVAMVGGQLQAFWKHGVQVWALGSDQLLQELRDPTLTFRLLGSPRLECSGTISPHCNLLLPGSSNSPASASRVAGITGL
T7 sequence (Q52WX2 whole entry): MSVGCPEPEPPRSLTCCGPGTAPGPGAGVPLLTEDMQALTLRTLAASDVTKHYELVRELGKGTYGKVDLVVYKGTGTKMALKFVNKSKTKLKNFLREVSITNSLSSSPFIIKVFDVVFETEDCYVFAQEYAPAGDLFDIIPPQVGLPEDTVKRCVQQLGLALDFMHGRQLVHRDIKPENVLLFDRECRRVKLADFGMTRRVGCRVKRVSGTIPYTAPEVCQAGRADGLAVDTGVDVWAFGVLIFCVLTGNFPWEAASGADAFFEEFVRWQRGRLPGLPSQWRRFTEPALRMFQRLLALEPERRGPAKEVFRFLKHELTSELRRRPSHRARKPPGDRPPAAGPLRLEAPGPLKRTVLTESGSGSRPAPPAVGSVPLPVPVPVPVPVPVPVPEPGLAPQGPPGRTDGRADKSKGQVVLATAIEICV
T3 sequence (Q15746 whole entry): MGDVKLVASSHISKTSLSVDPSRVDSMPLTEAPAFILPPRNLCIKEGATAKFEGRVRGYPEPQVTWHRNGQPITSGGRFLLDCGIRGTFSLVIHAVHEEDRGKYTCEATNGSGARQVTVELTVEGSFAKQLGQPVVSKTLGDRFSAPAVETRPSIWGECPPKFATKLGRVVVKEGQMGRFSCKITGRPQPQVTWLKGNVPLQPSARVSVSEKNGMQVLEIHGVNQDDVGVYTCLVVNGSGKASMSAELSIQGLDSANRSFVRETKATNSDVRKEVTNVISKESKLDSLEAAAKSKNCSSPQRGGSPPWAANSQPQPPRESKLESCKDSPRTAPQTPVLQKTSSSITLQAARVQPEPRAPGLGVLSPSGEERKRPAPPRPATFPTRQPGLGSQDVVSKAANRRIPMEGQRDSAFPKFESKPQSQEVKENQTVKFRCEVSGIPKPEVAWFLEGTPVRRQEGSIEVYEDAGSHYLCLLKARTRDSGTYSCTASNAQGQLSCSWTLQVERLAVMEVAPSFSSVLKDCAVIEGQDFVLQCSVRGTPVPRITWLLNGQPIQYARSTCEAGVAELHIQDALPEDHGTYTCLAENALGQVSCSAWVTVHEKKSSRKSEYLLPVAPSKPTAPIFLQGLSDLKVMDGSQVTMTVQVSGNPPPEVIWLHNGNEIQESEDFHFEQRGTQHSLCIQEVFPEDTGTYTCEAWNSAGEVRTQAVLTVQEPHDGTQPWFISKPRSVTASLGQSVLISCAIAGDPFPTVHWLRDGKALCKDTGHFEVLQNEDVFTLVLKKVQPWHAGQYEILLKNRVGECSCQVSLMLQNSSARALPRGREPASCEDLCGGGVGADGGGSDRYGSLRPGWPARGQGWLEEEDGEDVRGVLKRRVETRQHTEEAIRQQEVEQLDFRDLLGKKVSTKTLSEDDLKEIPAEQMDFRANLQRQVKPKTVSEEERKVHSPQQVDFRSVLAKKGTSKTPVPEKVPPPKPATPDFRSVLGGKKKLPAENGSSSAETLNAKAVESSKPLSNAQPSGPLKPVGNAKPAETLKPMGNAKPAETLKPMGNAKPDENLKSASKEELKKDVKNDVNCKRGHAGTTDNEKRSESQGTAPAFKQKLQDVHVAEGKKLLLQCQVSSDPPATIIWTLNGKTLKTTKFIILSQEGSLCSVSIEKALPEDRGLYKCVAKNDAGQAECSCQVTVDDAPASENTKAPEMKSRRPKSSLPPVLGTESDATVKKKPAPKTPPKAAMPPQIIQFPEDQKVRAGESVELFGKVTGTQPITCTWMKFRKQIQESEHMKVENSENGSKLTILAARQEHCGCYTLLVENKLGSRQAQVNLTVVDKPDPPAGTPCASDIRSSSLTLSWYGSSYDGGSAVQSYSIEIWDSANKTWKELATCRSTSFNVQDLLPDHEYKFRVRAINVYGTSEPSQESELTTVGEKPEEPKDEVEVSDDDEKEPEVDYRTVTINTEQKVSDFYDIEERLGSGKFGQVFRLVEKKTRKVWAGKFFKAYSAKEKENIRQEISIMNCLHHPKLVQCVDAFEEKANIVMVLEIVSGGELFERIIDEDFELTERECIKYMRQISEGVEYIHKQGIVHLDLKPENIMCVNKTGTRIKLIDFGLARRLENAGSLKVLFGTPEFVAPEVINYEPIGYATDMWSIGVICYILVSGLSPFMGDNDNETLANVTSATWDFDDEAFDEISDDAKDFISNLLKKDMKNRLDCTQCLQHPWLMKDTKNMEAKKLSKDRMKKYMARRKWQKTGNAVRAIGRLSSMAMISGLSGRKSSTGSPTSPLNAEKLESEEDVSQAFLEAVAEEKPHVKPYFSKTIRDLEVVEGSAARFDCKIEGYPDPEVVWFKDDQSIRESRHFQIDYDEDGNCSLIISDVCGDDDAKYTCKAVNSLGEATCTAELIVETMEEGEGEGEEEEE
T5 sequence (Q15375 28-998): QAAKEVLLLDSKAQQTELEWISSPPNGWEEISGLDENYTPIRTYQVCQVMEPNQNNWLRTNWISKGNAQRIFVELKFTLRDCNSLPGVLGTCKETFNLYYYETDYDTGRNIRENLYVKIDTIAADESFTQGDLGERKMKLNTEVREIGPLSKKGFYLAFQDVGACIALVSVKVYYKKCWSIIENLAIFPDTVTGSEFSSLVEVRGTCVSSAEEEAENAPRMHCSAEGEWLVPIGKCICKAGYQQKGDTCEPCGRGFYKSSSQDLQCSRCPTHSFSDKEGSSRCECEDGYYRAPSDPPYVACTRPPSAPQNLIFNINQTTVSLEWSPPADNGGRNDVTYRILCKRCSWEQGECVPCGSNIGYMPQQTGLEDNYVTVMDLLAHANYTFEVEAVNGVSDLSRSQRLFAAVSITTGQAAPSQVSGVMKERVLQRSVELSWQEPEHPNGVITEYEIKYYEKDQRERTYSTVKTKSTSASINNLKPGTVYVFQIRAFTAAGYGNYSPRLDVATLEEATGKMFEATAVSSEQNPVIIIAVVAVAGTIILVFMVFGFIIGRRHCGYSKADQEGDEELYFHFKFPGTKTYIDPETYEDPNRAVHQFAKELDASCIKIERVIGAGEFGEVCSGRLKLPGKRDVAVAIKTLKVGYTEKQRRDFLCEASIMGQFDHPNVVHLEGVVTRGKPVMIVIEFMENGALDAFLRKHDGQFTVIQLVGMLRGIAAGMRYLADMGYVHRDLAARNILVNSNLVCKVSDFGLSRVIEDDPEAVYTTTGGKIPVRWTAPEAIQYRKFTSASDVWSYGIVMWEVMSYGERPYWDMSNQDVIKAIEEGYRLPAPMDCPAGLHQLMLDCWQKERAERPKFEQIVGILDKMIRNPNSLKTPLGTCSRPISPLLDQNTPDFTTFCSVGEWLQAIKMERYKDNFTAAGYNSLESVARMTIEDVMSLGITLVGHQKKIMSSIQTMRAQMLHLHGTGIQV

The term inhibition denotes the relative decrease from the control value, in per cent. `C=CC(=O)Nc1cc(-c2cc(-c3cc4c([nH]3)CCNC4=O)ccn2)ccc1OC(F)(F)F` [compound 11]: the inhibition at 0.01 µM was -23% in assay [1] (10 nM); -8% in assay [2] (10 nM); -10% in assay [3] (10 nM); 9% in assay [4] (10 nM); 3% in assay [5] (10 nM); 2% in assay [6] (10 nM). For the same molecule, the inhibition at 0.01 µM in assay [7] (10 nM) was -1%. Also, the inhibition at 0.1 µM in assay [1] (100 nM) is -10%; in assay [2] (100 nM), -15%; in assay [3] (100 nM), 0%; in assay [4] (100 nM), 8%; in assay [5] (100 nM) it was -3%; in assay [6] (100 nM) it was -5%. Moreover, the inhibition at 0.1 µM in assay [7] (100 nM) was -8%. The inhibition at 1 µM was 23% in assay [1] (1000 nM); 1% in assay [2] (1000 nM); 34% in assay [3] (1000 nM); 6% in assay [4] (1000 nM); -11% in assay [5] (1000 nM); 6% in assay [6] (1000 nM). In addition, in assay [7] (1000 nM), the inhibition at 1 µM is 3%.

The values are drawn from paper PMC11233931, “Remodeling tumor‐associated macrophage for anti‐cancer effects by rational design of irreversible inhibition of mitogen‐activated protein kinase‐activated protein kinase 2” (MedComm, 2024).
